Measured values published in patent US20260042762A1 (Kymera Therapeutics, Inc., priority 2018, published 2026).
Counter-ions that a name gives are not always drawn.

molecular target: T1, MerTK (Homo sapiens, UniProt Q12866); test: MerTk degradation in Jurkat cells (Western blot); type: cell-based; conditions: Jurkat, 4 h, 0.001-1 μM, 4 hour-incubation at 37° C., read-out: Jurkat Max % MerTK Degradation
T1 construct: endogenous in cells; host or cells: Jurkat cells
T1 sequence (Q12866 21-999): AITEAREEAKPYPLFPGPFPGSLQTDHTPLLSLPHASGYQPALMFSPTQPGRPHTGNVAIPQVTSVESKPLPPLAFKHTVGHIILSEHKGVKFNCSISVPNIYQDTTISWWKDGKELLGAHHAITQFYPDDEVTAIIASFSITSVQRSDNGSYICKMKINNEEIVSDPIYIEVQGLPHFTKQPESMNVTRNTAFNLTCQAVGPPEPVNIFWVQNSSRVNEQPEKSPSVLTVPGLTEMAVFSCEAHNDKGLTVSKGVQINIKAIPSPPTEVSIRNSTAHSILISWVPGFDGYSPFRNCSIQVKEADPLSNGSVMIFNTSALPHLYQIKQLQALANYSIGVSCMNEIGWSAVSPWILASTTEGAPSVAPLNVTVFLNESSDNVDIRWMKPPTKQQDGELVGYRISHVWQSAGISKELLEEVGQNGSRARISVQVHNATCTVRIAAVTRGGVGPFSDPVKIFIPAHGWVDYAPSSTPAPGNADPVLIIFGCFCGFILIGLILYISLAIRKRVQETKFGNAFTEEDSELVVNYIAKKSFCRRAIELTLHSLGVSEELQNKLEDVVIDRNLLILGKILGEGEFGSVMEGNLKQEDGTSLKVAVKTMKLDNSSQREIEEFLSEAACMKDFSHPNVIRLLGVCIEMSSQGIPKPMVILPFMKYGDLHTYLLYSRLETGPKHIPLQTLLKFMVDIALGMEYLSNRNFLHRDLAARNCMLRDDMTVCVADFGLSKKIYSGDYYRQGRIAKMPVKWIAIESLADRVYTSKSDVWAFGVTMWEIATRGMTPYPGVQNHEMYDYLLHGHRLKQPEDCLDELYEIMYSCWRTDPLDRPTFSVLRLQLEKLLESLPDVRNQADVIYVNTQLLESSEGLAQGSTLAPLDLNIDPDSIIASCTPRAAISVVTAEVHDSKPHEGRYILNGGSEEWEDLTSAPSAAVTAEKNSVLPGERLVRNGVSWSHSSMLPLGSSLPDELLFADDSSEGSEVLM
Summary of the method: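 MerTK degradation was read by near-infrared Western blot, normalized to actin, in BCA-quantified lysates of Jurkat cells exposed to 0.001-1 μM compound for 4 h at 37 °C.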

Dmax [%] | Compound
> 50 | Cn1c(=O)n([C@H]2CCC(=O)NC2=O)c2ccc(CCCOCCOCC3CCN(C[C@H]4CC[C@H](c5cn([C@H]6CC[C@H](O)CC6)c6nc(NCCC(F)(F)F)ncc65)CC4)CC3)cc21 [I-172, 3-[3-methyl-2-oxo-5-(3-[2-[(1-[[trans-4-[7-[trans-4-hydroxycyclohexy1]-2-[(3,3,3-trifluoropropyl)amino]pyrrolo[2,3-d]pyrimidin-5-yl]cyclohexyl]methyl]piperidin-4-yl)methoxy]ethoxy]propy1)-1,3-benzodiazol-1-yl]piperidine-2,6-dione]
20 to 50 | Cc1ncsc1-c1ccc(CNC(=O)[C@@H]2C[C@@H](O)CN2C(=O)[C@@H](NC(=O)COCCOCCOCCOCCN2CCN(Cc3ccc(-c4cn([C@H]5CC[C@H](O)CC5)c5nc(NCCC(F)(F)F)ncc45)cc3)CC2)C(C)(C)C)cc1 [I-173, (2S,4R)-1-[(2S)-3,3-dimethyl-2-(14-[4-[(4-[7-[(1r,4r)-4-hydroxycyclohexyl]-2-[(3,3,3-trifluoropropyl)amino]pyrrolo[2,3-d]pyrimidin-5-yl]phenyl)methyl]piperazin-1-yl]-3,6,9,12-tetraoxatetradecanamido)butanoyl]-4-hydroxy-N-[[4-(4-methyl-1,3-thiazol-5-yl)phenyl]methyl]pyrrolidine-2-carboxamide]
20 to 50 | Cc1ncsc1-c1ccc(CNC(=O)[C@@H]2C[C@@H](O)CN2C(=O)[C@@H](NC(=O)C2(F)CC2)C(C)(C)C)c(OCCOCCN2CCN(Cc3ccc(-c4cn([C@H]5CC[C@H](O)CC5)c5nc(NCCC(F)(F)F)ncc45)cc3)CC2)c1 [I-174]
> 50 | CCC[C@@H](C)Nc1ncc2c(-c3ccc(CN4CCN(CCCO[C@H]5CCN(Cc6ccc7c(c6)n(C)c(=O)n7C6CCC(=O)NC6=O)C5)CC4)cc3)cn([C@H]3CC[C@H](O)CC3)c2n1 (stereo partly shown) [I-176]
> 50 | CCC[C@H](C)Nc1ncc2c(-c3ccc(CN4CCN(CCCO[C@H]5CCN(Cc6ccc7c(c6)n(C)c(=O)n7C6CCC(=O)NC6=O)C5)CC4)cc3)cn([C@H]3CC[C@H](O)CC3)c2n1 (stereo partly drawn) [I-177, 3-(3-methyl-2-oxo-5-[[(3S)-3-(3-[4-[(4-[2-[(2S)-pentan-2-ylamino]-7-[trans-4-hydroxycyclohexyl]pyrrolo[2,3-d]pyrimidin-5-yl]phenyl)methyl]piperazin-1-yl]propoxy)pyrrolidin-1-yl]methyl]-1,3-benzodiazol-1-yl)piperidine-2,6-dione]
> 50 | CCC[C@H](C)Nc1ncc2c(-c3ccc(CN4CCN(CCCOC5CN(Cc6ccc7c(c6)n(C)c(=O)n7C6CCC(=O)NC6=O)C5)CC4)cc3)cn([C@H]3CC[C@H](O)CC3)c2n1 (stereo partly drawn) [I-178, 3-(3-methyl-2-oxo-5-[[3-(3-[4-[(4-[2-[(2S)-pentan-2-ylamino]-7-[trans-4-hydroxycyclohexyl]pyrrolo[2,3-d]pyrimidin-5-yl]phenyl)methyl]piperazin-1-yl]propoxy)azetidin-1-yl]methyl]-1,3-benzodiazol-1-yl)piperidine-2,6-dione]
< 20 | Cc1cc(CNCc2ccc(C(=O)N3CCC(C4CCN(Cc5ccc(-c6cn([C@H]7CC[C@H](O)CC7)c7nc(NCCC(F)(F)F)ncc67)cc5)CC4)CC3)cc2)ccc1-c1ccc2nn(CC3CC3)cc2c1 [I-180, trans-4-[5-(4-[[1-(4-[[([4-[2-(Cyclopropylmethyl)indazol-5-yl]-3-methylphenyl]methyl)amino]methyl]benzoyl)-[4,4-bipiperidin]-1-yl]methyl]phenyl)-2-[(3,3,3-trifluoropropyl)amino]pyrrolo[2,3-d]pyrimidin-7-yl]cyclohexan-1-ol hydrochloride]
< 20 | O=C(c1ccc(CNCc2ccc(-c3ccc4c(cnn4CC4CC4)c3)cc2)cc1)N1CC(C2CCN(Cc3ccc(-c4cn([C@H]5CC[C@H](O)CC5)c5nc(NCCC(F)(F)F)ncc45)cc3)CC2)C1 [I-181, trans-4-[5-[4-([4-[1-(4-[[([4-[1-(Cyclopropylmethyl)indazol-5-yl]phenyl]methyl)amino]methyl]benzoyl)azetidin-3-yl]piperidin-1-yl]methyl)phenyl]-2-[(3,3,3-trifluoropropyl)amino]pyrrolo[2,3-d]pyrimidin-7-yl]cyclohexan-1-ol]
20 to 50 | CN1CCN(Cc2ccc(-c3ccc(CO[C@H]4CCC[C@@H]4NC(=O)c4cc(-c5cnn(CCOCCOCCCc6ccc7c(c6)n(C)c(=O)n7C6CCC(=O)NC6=O)c5)cnc4N)cc3)cc2)CC1 (stereo partly drawn) [I-182, 2-Amino-5-(1-[2-(2-[3-[1-(2,6-dioxopiperidin-3-yl)-3-methyl-2-oxo-1,3-benzodiazol-5-yl]propoxy]ethoxy)ethyl]pyrazol-4-yl]-N-[(1S,2S)-2-([4-[(4-methylpiperazin-1-yl)methyl]-[1,1-biphenyl]-4-yl]methoxy)cyclopentyl]pyridine-3-carboxamide]
< 20 | CN1CCN(Cc2ccc(-c3ccc(CO[C@H]4CCC[C@@H]4NC(=O)c4cc(-c5cnn(CCCc6cccc7c6n(C)c(=O)n7C6CCC(=O)NC6=O)c5)cnc4N)cc3)cc2)CC1 (stereo partly drawn) [I-183, 2-Amino-5-(1-[3-[1-(2,6-dioxopiperidin-3-yl)-3-methyl-2-oxo-1,3-benzodiazol-4-yl]propyl]pyrazol-4-yl)-N-[(1S,2S)-2-([4-[(4-methylpiperazin-1-yl)methyl]-[1,1-biphenyl]-4-yl]methoxy)cyclopentyl]pyridine-3-carboxamide]
20 to 50 | CN1CCN(Cc2ccc(-c3ccc(CO[C@H]4CCC[C@@H]4NC(=O)c4cc(-c5cnn(CCOCCOCCCc6cccc7c6n(C)c(=O)n7C6CCC(=O)NC6=O)c5)cnc4N)cc3)cc2)CC1 (stereo partly drawn) [I-184, 2-Amino-5-[1-[2-(2-[3-[1-(2,6-dioxopiperidin-3-yl)-3-methyl-2-oxo-1,3-benzodiazol-4-yl]propoxy]ethoxy)ethyl]pyrazol-4-yl]-N-[(1S,2S)-2-([4-[(4-methylpiperazin-1-yl)methyl]-[1,1-biphenyl]-4-yl]methoxy)cyclopentyl]pyridine-3-carboxamide]
> 50 | C[C@H](Nc1ncc2c(-c3ccc(CN4CCN(CCCCOCCCc5ccc6c(c5)n(C)c(=O)n6C5CCC(=O)NC5=O)CC4)cc3)cn([C@H]3CC[C@H](O)CC3)c2n1)C(F)F (stereo partly shown) [I-185]

Compound | Dmax [%]
CCC[C@H](C)Nc1ncc2c(-c3ccc(CN4CCN(C5CC(OCCc6ccc7c(c6)n(C)c(=O)n7C6CCC(=O)NC6=O)C5)CC4)cc3)cn([C@H]3CC[C@H](O)CC3)c2n1 (stereo partly drawn) [I-175, 3-[3-methyl-2-oxo-5-[2-(3-[4-[(4-[2-[(2S)-pentan-2-ylamino]-7-[trans-4-hydroxycyclohexyl]pyrrolo[2,3-d]pyrimidin-5-yl]phenyl)methyl]piperazin-1-yl]cyclobutoxy)ethyl]-1,3-benzodiazol-1-yl]piperidine-2,6-dione] | > 50
Cc1ncsc1-c1ccc(CNC(=O)[C@@H]2C[C@@H](O)CN2C(=O)[C@@H](NC(=O)C2(F)CC2)C(C)(C)C)c(OCCCCN2CCN(Cc3ccc(-c4cn([C@H]5CC[C@H](O)CC5)c5nc(NCCC(F)(F)F)ncc45)cc3)CC2)c1 [I-179, (2S,4R)-1-[(2S)-2-[(1-fluorocyclopropyl)formamido]-3,3-dimethylbutanoyl]-4-hydroxy-N-[[4-(4-methyl-1,3-thiazol-5-yl)-2-(4-[4-[(4-[7-[trans-4-hydroxycyclohexyl]-2-[(3,3,3-trifluoropropyl)amino]pyrrolo[2,3-d]pyrimidin-5-yl]phenyl)methyl]piperazin-1-yl]butoxy)phenyl]methyl]pyrrolidine-2-carboxamide] | 20 to 50
CCC[C@H](C)Nc1ncc2c(-c3ccc(CN4CCN(C5CC(OCCc6ccc7c(c6)n(C)c(=O)n7C6CCC(=O)NC6=O)C5)CC4)cc3)cn([C@H]3CC[C@@](C)(O)CC3)c2n1 (stereo partly drawn) [I-187, 3-[3-methyl-2-oxo-5-[2-(3-[4-[(4-[2-[(2S)-pentan-2-ylamino]-7-[cis-4-hydroxy-4-methylcyclohexyl]pyrrolo[2,3-d]pyrimidin-5-yl]phenyl)methyl]piperazin-1-yl]cyclobutoxy)ethyl]-1,3-benzodiazol-1-yl]piperidine-2,6-dione; formic acid] | > 50
CCC[C@H](C)Nc1ncc2c(-c3ccc(CN4CCN(C5CC(OCCc6ccc7c(c6)n(C)c(=O)n7C6CCC(=O)NC6=O)C5)CC4)cc3)cn([C@H]3CC[C@](C)(O)CC3)c2n1 (stereo partly drawn) [I-188, 3-[3-methyl-2-oxo-5-[2-(3-[4-[(4-[2-[(2S)-pentan-2-ylamino]-7-[trans-4-hydroxy-4-methylcyclohexyl]pyrrolo[2,3-d]pyrimidin-5-yl]phenyl)methyl]piperazin-1-yl]cyclobutoxy)ethyl]-1,3-benzodiazol-1-yl]piperidine-2,6-dione; formic acid] | > 50
